# According to patent US20240398817A1, “CARDIO- AND RENOSAFE ANTIDIABETIC THERAPY” (priority 2018, published 2024):
# Test system: patients with type 2 diabetes at high vascular risk
# Test: Cardiovascular and Renal Outcomes Trial: linagliptin 5 mg once daily vs placebo on top of standard of care
# Assay type: in vivo
# Conditions: for Hazard ratio for hospitalised heart failure: vs placebo
# Method: The effect of linagliptin on cardiovascular risk in adult patients with type 2 diabetes mellitus and with increased CV risk evidenced by a history of established macrovascular or renal disease (e.g. as defined herein) was evaluated in a multi-center, multi-national, randomized, double-blind parallel group trial. The trial compared the risk of experiencing a major adverse cardiovascular event (MACE) between linagliptin and placebo when these were added to and used concomitantly with standard of care treatments for diabetes (HbA1c), cardiovascular risk factors and renal disease.
# The primary endpoint in this trial was the time to first occurrence of three point (3P) MACE. A major adverse cardiac event was defined as a cardiovascular death or a nonfatal myocardial infarction (MI) or a nonfatal stroke. The statistical analysis plan tested for non-inferiority for the occurrence of (3P) MACE. […] The secondary endpoint was a renal composite, defined as renal death or sustained end stage renal disease or sustained decrease of 40% or more in eGFR.
# Type 2 diabetes patient with insufficient glycemic control (naïve or pre-treated with any antidiabetic background medication, excluding treatment with GLP-1 receptor agonists, DPP-4inhibitors or SGLT-2 inhibitors if ≥consecutive 7 days, e.g. having HbA1c 6.5-10%), and high risk of cardiovascular events, e.g. defined by: • albuminuria (micro or macro) and previous macrovascular disease: e.g. defined according to Condition I as indicated below; • and/or • impaired renal function: e.g. as defined according to Condition II as indicated below;
# Background and aims: People with type 2 diabetes (T2D) are at increased risk for hospitalization for heart failure (hHF), particularly in the setting of concomitant cardiovascular (CV) and/or kidney disease. […] Here we present analyses of HF outcomes with the DPP-4 inhibitor linagliptin (LINA) vs. placebo (PBO) from a Cardiovascular and Renal Outcomes Trial assessing cardiovascular safety and renal microvascular outcome in patients with type 2 diabetes at high vascular risk, a large CV outcomes trial that enrolled participants with T2D at high risk for hHF due to concomitant CV and/or chronic kidney disease. Materials and methods: People with T2D and concomitant CV and/or kidney disease were randomized to receive LINA 5 mg, or PBO once daily (1:1), on top of standard of care. All hHF, CV outcomes, and deaths were centrally adjudicated, with individual and composite HF-related outcomes analyses comparing LINA vs. placebo. Investigator-reported HF-related adverse events, whether or not confirmed by adjudication, were also analyzed. A Cox proportional hazards model adjusting for region and history of HF was used for analyses of first events. Recurrent hHF events were analyzed using a negative binomial model.
# Methods: The present Cardiovascular and Renal Outcomes Trial randomized people with T2D and i) concomitant CV disease with UACR >30 mg/g or ii) prevalent CKD (i.e. GFR <45 ml/min/1.73m2 and/or UACR >200 mg/g) to receive the DPP-4 inhibitor linagliptin (5 mg) or placebo once daily in a double-blind fashion. The primary CV endpoint was 3P-MACE, with a key secondary kidney endpoint (adjudicated ESKD, renal death, or sustained ≥40% decrease in eGFR from baseline) and other renal outcomes (including albuminuria and eGFR slope) also assessed. Subgroups were assessed by baseline kidney function (eGFR ≥/<45 ml/min/1.73m2and eGFR ≥/<30, 45 or 60 ml/min/1.73m2).
# Adults with type 2 diabetes, HbA1c 6.5-10.0% inclusive, and high CV risk were eligible for inclusion. […] Macrovascular disease eligibility criteria was based on documented and confirmed history of myocardial infarction, coronary artery disease, stroke, carotid artery disease, or peripheral artery disease. Participants with end-stage kidney disease (ESKD), defined as eGFR <15 or requiring maintenance dialysis, were excluded.
# [1] = Metformin-dose: Not on metformin
# [2] = Prevalent kidney disease (eGFR<60 mL/min/1.73 m^2 or macroalbuminuria UACR >300 mg/g) No
# [3] = Prevalent kidney disease (eGFR<60 mL/min/1.73 m^2 or macroalbuminuria UACR >300 mg/g) Yes
# [4] = Prevalent kidney disease (eGFR<60 or UACR >300 mg/g) No
# [5] = Prevalent kidney disease (eGFR<60 or UACR >300 mg/g) Yes
structure (smiles),measurement,setting,value
"CC#CCn1c(N2CCC[C@@H](N)C2)nc2c1c(=O)n(Cc1nc(C)c3ccccc3n1)c(=O)n2C [Linagliptin, 1-[(4-methyl-quinazolin-2-yl)methyl]-3-methyl-7-(2-butyn-1-yl)-8-(3-(R)-amino-piperidin-1-yl)-xanthine]",Hazard ratio for hospitalised heart failure,History of heart failure Yes,0.88
same,3-point MACE: hazard ratio vs placebo,Insulin No,0.88
same,3-point MACE: patients with event/patients analyzed,Insulin No,139/1487
same,Key secondary kidney outcome: hazard ratio vs placebo,Insulin No,1.08
same,Key secondary kidney outcome: patients with event/patients analyzed,Insulin No,101/1487
same,"Patients with event/patients analysed, hospitalised heart failure",Insulin No,40/1487
same,Hazard ratio for hospitalised heart failure,Insulin No,0.62
same,3-point MACE: hazard ratio vs placebo,Insulin Yes,1.10
same,3-point MACE: patients with event/patients analyzed,Insulin Yes,295/2007
same,Key secondary kidney outcome: hazard ratio vs placebo,Insulin Yes,1.01
same,Key secondary kidney outcome: patients with event/patients analyzed,Insulin Yes,226/2007
same,"Patients with event/patients analysed, hospitalised heart failure",Insulin Yes,169/2007
same,Hazard ratio for hospitalised heart failure,Insulin Yes,1.00
same,"Patients with event/patients analysed, hospitalised heart failure",Ischemic heart disease No,66/1465
same,Hazard ratio for hospitalised heart failure,Ischemic heart disease No,1.04
same,"Patients with event/patients analysed, hospitalised heart failure",Ischemic heart disease Yes,143/2029
same,Hazard ratio for hospitalised heart failure,Ischemic heart disease Yes,0.85
same,3-point MACE: hazard ratio vs placebo,Lipid lowering drugs No,0.90
same,3-point MACE: patients with event/patients analyzed,Lipid lowering drugs No,95/871
same,Key secondary kidney outcome: hazard ratio vs placebo,Lipid lowering drugs No,1.13
same,Key secondary kidney outcome: patients with event/patients analyzed,Lipid lowering drugs No,101/871
same,"Patients with event/patients analysed, hospitalised heart failure",Lipid lowering drugs No,34/871
same,Hazard ratio for hospitalised heart failure,Lipid lowering drugs No,1.01
same,3-point MACE: hazard ratio vs placebo,Lipid lowering drugs Yes,1.06
same,3-point MACE: patients with event/patients analyzed,Lipid lowering drugs Yes,339/2623
same,Key secondary kidney outcome: hazard ratio vs placebo,Lipid lowering drugs Yes,1.00
same,Key secondary kidney outcome: patients with event/patients analyzed,Lipid lowering drugs Yes,226/2623
same,"Patients with event/patients analysed, hospitalised heart failure",Lipid lowering drugs Yes,175/2623
same,Hazard ratio for hospitalised heart failure,Lipid lowering drugs Yes,0.88
same,"Patients with event/patients analysed, hospitalised heart failure",Loop diuretics No,80/2530
same,Hazard ratio for hospitalised heart failure,Loop diuretics No,0.97
same,"Patients with event/patients analysed, hospitalised heart failure",Loop diuretics Yes,129/964
same,Hazard ratio for hospitalised heart failure,Loop diuretics Yes,0.90
same,3-point MACE: hazard ratio vs placebo,Metformin No,1.02
same,3-point MACE: patients with event/patients analyzed,Metformin No,242/1613
same,Key secondary kidney outcome: hazard ratio vs placebo,Metformin No,0.99
same,Key secondary kidney outcome: patients with event/patients analyzed,Metformin No,212/1613
same,"Patients with event/patients analysed, hospitalised heart failure",Metformin No,138/1613
same,Hazard ratio for hospitalised heart failure,Metformin No,0.97
same,3-point MACE: hazard ratio vs placebo,Metformin Yes,1.02
same,3-point MACE: patients with event/patients analyzed,Metformin Yes,192/1881
same,Key secondary kidney outcome: hazard ratio vs placebo,Metformin Yes,1.11
same,Key secondary kidney outcome: patients with event/patients analyzed,Metformin Yes,115/1881
same,"Patients with event/patients analysed, hospitalised heart failure",Metformin Yes,71/1881
same,Hazard ratio for hospitalised heart failure,Metformin Yes,0.79
same,3-point MACE: hazard ratio vs placebo,Metformin-dose >1500 mg,1.02
same,3-point MACE: patients with event/patients analyzed,Metformin-dose >1500 mg,111/1094
same,Key secondary kidney outcome: hazard ratio vs placebo,Metformin-dose >1500 mg,0.99
same,Key secondary kidney outcome: patients with event/patients analyzed,Metformin-dose >1500 mg,62/1094
same,"Patients with event/patients analysed, hospitalised heart failure",Metformin-dose >1500 mg,49/1094
same,Hazard ratio for hospitalised heart failure,Metformin-dose >1500 mg,0.88
same,3-point MACE: hazard ratio vs placebo,Metformin-dose ≤1500 mg,1.02
same,3-point MACE: patients with event/patients analyzed,Metformin-dose ≤1500 mg,81/787
same,Key secondary kidney outcome: hazard ratio vs placebo,Metformin-dose ≤1500 mg,1.29
same,Key secondary kidney outcome: patients with event/patients analyzed,Metformin-dose ≤1500 mg,53/787
same,"Patients with event/patients analysed, hospitalised heart failure",Metformin-dose ≤1500 mg,22/787
same,Hazard ratio for hospitalised heart failure,Metformin-dose ≤1500 mg,0.65
same,3-point MACE: hazard ratio vs placebo,[1],1.02
same,3-point MACE: patients with event/patients analyzed,[1],242/1613
same,Key secondary kidney outcome: hazard ratio vs placebo,[1],0.99
same,Key secondary kidney outcome: patients with event/patients analyzed,[1],212/1613
same,"Patients with event/patients analysed, hospitalised heart failure",[1],138/1613
same,Hazard ratio for hospitalised heart failure,[1],0.97
same,"Patients with event/patients analysed, hospitalised heart failure",[2],18/887
same,Hazard ratio for hospitalised heart failure,[2],0.69
same,"Patients with event/patients analysed, hospitalised heart failure",[3],191/2606
same,Hazard ratio for hospitalised heart failure,[3],0.91
same,3-point MACE: hazard ratio vs placebo,[4],0.88
same,3-point MACE: patients with event/patients analyzed,[4],60/887
same,Key secondary kidney outcome: hazard ratio vs placebo,[4],1.36
same,Key secondary kidney outcome: patients with event/patients analyzed,[4],19/887
same,3-point MACE: hazard ratio vs placebo,[5],1.04
same,3-point MACE: patients with event/patients analyzed,[5],374/2606
same,Key secondary kidney outcome: hazard ratio vs placebo,[5],0.99
same,Key secondary kidney outcome: patients with event/patients analyzed,[5],308/2606
same,3-point MACE: hazard ratio vs placebo,Race Asian,1.09
same,3-point MACE: patients with event/patients analyzed,Race Asian,40/307
same,Key secondary kidney outcome: hazard ratio vs placebo,Race Asian,0.90
same,Key secondary kidney outcome: patients with event/patients analyzed,Race Asian,32/307
same,"Patients with event/patients analysed, hospitalised heart failure",Race Asian,14/307
same,3-point MACE: hazard ratio vs placebo,Race Black/African-American,1.30
same,3-point MACE: patients with event/patients analyzed,Race Black/African-American,31/194
same,Key secondary kidney outcome: hazard ratio vs placebo,Race Black/African-American,1.31
same,Key secondary kidney outcome: patients with event/patients analyzed,Race Black/African-American,35/194
same,"Patients with event/patients analysed, hospitalised heart failure",Race Black/African-American,15/194
